Test results as given in US10350311B2, “Iohexol powder and method of using the same” (Otsuka Pharmaceutical Co., Ltd., priority 2014, dated 2019).

Legend:
Assay type in all cases: physicochemical
[1] = Particle size distribution (D10, D50, D90); conditions: for Particle Size distribution (μm) D50: Table 6, Example 5; for Particle Size distribution (μm) D10 / Particle Size distribution (μm) D90: Table 6
From the text: As used herein, the “D90” of a particulate material denotes a diameter value for the particles in the material at which about 90% of the particles have a diameter below the diameter value. For example, in a sample with a D90 of 20 μm, 90% of the particles in the sample have a diameter of 20 μm or less. As used herein, the “D50” of a material denotes a diameter value for the particles in the material at which about 50% of the particles have a diameter below the diameter value. For example, in a sample with a D50 of 10 μm, 50% of the particles in the sample have a diameter of 10 μm or less. As used herein, the “D10” of a material denotes a diameter value for the particles in the material at which about 10% of the particles have a diameter below the diameter value. For example, in a sample with a D10 of 5 μm, 10% of the particles in the sample have a diameter of 5 μm or less.

[2] = Specific surface area by low-temperature nitrogen adsorption (BET); conditions: for Specific Area measured [m^2/g] / Specific Area estimated [m^2/g] / Relative desorbed amount Ad/Ad(crystallized): Table 5; for Specific Area measured [m^2/g]: BET isotherm, nitrogen adsorption; for Specific Area estimated [m^2/g]: calculated from SEM geometry assuming non-porous spheres; for Relative desorbed amount Ad/Ad(crystallized): nitrogen desorbed relative to crystallized iohexol; for Specific surface area m^2/g: Table 6, Example 5
Description: Specific surface area was measured using a low-temperature nitrogen adsorption apparatus, a Pulse Chemisorb 2700.
The specific surface area data, which were evaluated using a BET isotherm, support the nonporous nature/character of the particles. The measured value of the specific surface area was about 2.8 m^2/g, which is consistent with the calculation of the specific surface area of hypothetical material which consists of non-porous spheres with a radius of 3 μm. Considering the skeletal density of crystallized iohexol (2.097 g/cm3), the calculated specific surface area of this hypothetical material is about 4 m^2/g. All data provided by analyses appear to support the conclusion that the crystallized iohexol solid material contains agglomerates consisting of small nonporous particles and that the total specific area is the sum of the outer surface areas of these particles.
Experimentally obtained values of the specific surface area are very low, which is typical of macroporous to non-porous materials. Experimental specific surface area values for all samples are in good agreement with the estimated values based on SEM image analysis, (calculating the particle surface area based on the geometrical shape of particles, i.e., and assuming that the particles are not porous (confirmed by mercury porosimetry as discussed above). Individual values and comparisons of the amount of nitrogen desorption for each sample are summarized in Table 5.

[3] = Dissolution time in water by Modified United States Pharmacopeia Method 641
Description: As used herein, the term “Modified United States Pharmacopeia Method 641” denotes a modified form of the Standard United States Pharmacopeia Method 641, where the Modified United States Pharmacopeia Method 641 is carried out as follows: • Place 1.8 g of the particulate iohexol in a meticulously clean, glass-stoppered, 50 mL glass cylinder approximately 1:10 diameter to height in size. • Fill 40 mL of tap water adjusted to 10° C. (±2° C.) into the glass cylinder. • Immediately start shaking the glass cylinder and start recording total time. • Shake the glass cylinder with an up and down movement, keeping the frequency at 12-13 movements per 5 seconds. • After 20 seconds observe for 3 seconds for completeness of dissolution. • Evaluate after 3 seconds, when the bubbles disappear, comparing with pure solvent. • If dissolved completely, record “dissolved in 20 seconds”. • If not dissolved completely, continue shaking for a total time 30 sec • Repeat the dissolution evaluation at 30 seconds, 40 seconds, 1 min., and 1 min. 30 seconds. • Always repeat the dissolution evaluation using the same procedure. • If dissolved completely at time point 1 min 30 sec, record “dissolved in NMT 1 min 30 sec”. • If not dissolved, record “not dissolved in 1 min 30 sec”. 20 oz (600 ml) modified beverage PET bottle for Iohexol Powder for Oral Solution product; 50 ml testing glass cylinder; Tap water. Samples were tested using the Modified USP Method <641> as described herein.

[4] = Skeletal density by helium pycnometer; conditions: for Skeletal density: Table 5, Example 3; for Skeletal density (g/cm3): Table 6
Description: As used herein, the term “interparticle spacing” denotes the percentage of the “bulk” particle volume which is free space. The interparticle spacing can be calculated from the bulk density and skeletal density. As discussed above, bulk density refers to the density determined by dividing the weight of the sample by its measured volume, for example using the USP <616> method. The skeletal density, sometimes referred to as the “true density,” is determined by dividing the weight of a sample by its “true” volume—i.e., the volume excluding interstitial voids and any open porosity in the sample (e.g., determined by gas displacement techniques). […] The porosity of the iohexol particles was also investigated using mercury intrusion, and the skeletal density was determined by helium pycnometer and physical adsorption of nitrogen.

[5] = Exposure to air humidity / moisture uptake; conditions: exposed to ambient air humidity for 120 hours, SEM
Description: Crystallized iohexol samples were also examined by SME analysis for the influence of air humidity (i.e., humidity of ambient/room air). Crystallized iohexol samples were exposed to air humidity for 120 hours.

[6] = Bulk density; conditions: Table 6
From the text: As used herein, the term “bulk density” of a material denotes total mass of the material divided by the total volume occupied by the material. As used herein, the term “interparticle spacing” denotes the percentage of the “bulk” particle volume which is free space. The interparticle spacing can be calculated from the bulk density and skeletal density. As discussed above, bulk density refers to the density determined by dividing the weight of the sample by its measured volume, for example using the USP <616> method. The skeletal density, sometimes referred to as the “true density,” is determined by dividing the weight of a sample by its “true” volume—i.e., the volume excluding interstitial voids and any open porosity in the sample (e.g., determined by gas displacement techniques). Interparticle spacing can be calculated from the bulk density and skeletal density as exemplified herein: if the bulk density of a particular iohexol sample is ˜0.9 g/cm^3, the corresponding “bulk” volume for 1 g of the sample is 1.11 cm^3; and if the skeletal density of the sample is ˜2 g/cm^3, the corresponding “skeletal” volume (i.e. volume with porosity excluded) for 1 g of this sample is 0.5 cm^3. The difference between the “bulk” volume and “skeletal” volume, 0.61 cm^3, represents the volume of the free space (porosity) in the particle. The interparticle spacing is the difference between the “skeletal” volume and bulk volume, divided by the “bulk” volume, expressed as a percentage (i.e. 0.61 cm^3/1.11 cm^3=55% in this example).

[7] = Interparticle spacing calculated from bulk and skeletal density
Description: As used herein, the term “interparticle spacing” denotes the percentage of the “bulk” particle volume which is free space. The interparticle spacing can be calculated from the bulk density and skeletal density. As discussed above, bulk density refers to the density determined by dividing the weight of the sample by its measured volume, for example using the USP <616> method. The skeletal density, sometimes referred to as the “true density,” is determined by dividing the weight of a sample by its “true” volume—i.e., the volume excluding interstitial voids and any open porosity in the sample (e.g., determined by gas displacement techniques).

CC(=O)N(CC(O)CO)c1c(I)c(C(=O)NCC(O)CO)c(I)c(C(=O)NCC(O)CO)c1I (centres unmarked) [CRI, iohexol]
Particle Size distribution (μm) D50 ([1]; listed as crystallized iohexol): 10 μm
Specific Area measured [m^2/g] [2]: 2.8 m^2/g
Specific Area measured [m^2/g] ([2]; listed as crystallized iohexol): about 2.8 m^2/g
Specific Area estimated [m^2/g] [2]: 4.0^a m^2/g
Specific Area estimated [m^2/g] ([2]; listed as crystallized iohexol): about 4 m^2/g
Relative desorbed amount Ad/Ad(crystallized) [2]: 1
Specific surface area m^2/g ([2]; listed as crystallized iohexol): about 4 m^2/g
Dissolution, in words ([3]; Example 2): dissolved rapidly
Skeletal density [4]: 2.097 g/mL
Skeletal density ([4]; listed as crystallized iohexol): 2.097 g/mL
Influence of air humidity on the particles [5]: sintering of originally separated particles was observed

CC(=O)N(CC(O)CO)c1c(I)c(C(=O)NCC(O)CO)c(I)c(C(=O)NCC(O)CO)c1I (centres unmarked) [Batch 01206013, iohexol]
Bulk density (g/cm3) ([6]; listed as 01206013): 0.56 g/cm3
Particle Size distribution (μm) D50 ([1]; listed as 01206013): 10 μm
Particle Size distribution (μm) D10 ([1]; listed as 01206013): 5 μm
Particle Size distribution (μm) D90 ([1]; listed as 01206013): 15 μm
Specific surface area m^2/g ([2]; listed as 01206013): 4.00 m^2/g
Dissolution time ([3]; Table 4, 1.8 g in 40 mL tap water at 10° C., manual shaking, listed as 01206013): 40 s
Dissolution time ([3]; Table 6, Example 5, listed as 01206013): 40 s
Interparticle space (% of bulk volume) ([7]; Table 6, listed as 01206013): 73 % of bulk volume

CC(=O)N(CC(O)CO)c1c(I)c(C(=O)NCC(O)CO)c(I)c(C(=O)NCC(O)CO)c1I (centres unmarked) [Conventional Sample #1, iohexol]
Bulk density (g/cm3) [6]: 0.90 g/cm3
Particle Size distribution (μm) D10 [1]: 7 μm
Particle Size distribution (μm) D90 [1]: 61 μm
Particle Size distribution (μm) D50 [1]: 27 μm
Specific surface area m^2/g [2]: 0.50 m^2/g
Dissolution time ([3]; Table 6, Example 5): 90 s
Interparticle space (% of bulk volume) ([7]; Table 6): 56 % of bulk volume
Skeletal density (g/cm3) [4]: 2.0 g/cm3

CC(=O)N(CC(O)CO)c1c(I)c(C(=O)NCC(O)CO)c(I)c(C(=O)NCC(O)CO)c1I (centres unmarked) [Batch 03202012/8, iohexol]
Bulk density (g/cm3) ([6]; listed as 03202012/8): 0.90 g/cm3
Particle Size distribution (μm) D50 ([1]; listed as 03202012/8): 12 μm
Particle Size distribution (μm) D10 ([1]; listed as 03202012/8): 7 μm
Particle Size distribution (μm) D90 ([1]; listed as 03202012/8): 19 μm
Specific surface area m^2/g ([2]; listed as 03202012/8): 0.50 m^2/g
Dissolution time ([3]; Table 4, 1.8 g in 40 mL tap water at 10° C., manual shaking, listed as 03202012/8): 40 s
Dissolution time ([3]; Table 6, Example 5, listed as 03202012/8): 40 s
Interparticle space (% of bulk volume) ([7]; Table 6, listed as 03202012/8): 56 % of bulk volume
Skeletal density (g/cm3) [4]: 2.0 g/cm3

CC(=O)N(CC(O)CO)c1c(I)c(C(=O)NCC(O)CO)c(I)c(C(=O)NCC(O)CO)c1I (centres unmarked) [Conventional Sample #2, iohexol]
Bulk density (g/cm3) [6]: 0.90 g/cm3
Particle Size distribution (μm) D10 [1]: 7 μm
Particle Size distribution (μm) D90 [1]: 66 μm
Particle Size distribution (μm) D50 [1]: 29 μm
Specific surface area m^2/g [2]: 0.50 m^2/g
Dissolution time ([3]; Table 6, Example 5): 90 s
Interparticle space (% of bulk volume) ([7]; Table 6): 56 % of bulk volume
Skeletal density (g/cm3) [4]: 2.0 g/cm3

CC(=O)N(CC(O)CO)c1c(I)c(C(=O)NCC(O)CO)c(I)c(C(=O)NCC(O)CO)c1I (centres unmarked) [Batch 03302012, iohexol]
Bulk density (g/cm3) ([6]; listed as 03302012): 0.56 g/cm3
Particle Size distribution (μm) D50 ([1]; listed as 03302012): 10 μm
Particle Size distribution (μm) D10 ([1]; listed as 03302012): 5 μm
Particle Size distribution (μm) D90 ([1]; listed as 03302012): 16 μm
Specific surface area m^2/g ([2]; listed as 03302012): 4.00 m^2/g
Dissolution time ([3]; Table 4, 1.8 g in 40 mL tap water at 10° C., manual shaking, listed as 03302012): 40 s
Dissolution time ([3]; Table 6, Example 5, listed as 03302012): 40 s
Interparticle space (% of bulk volume) ([7]; Table 6, listed as 03302012): 73 % of bulk volume

CC(=O)N(CC(O)CO)c1c(I)c(C(=O)NCC(O)CO)c(I)c(C(=O)NCC(O)CO)c1I (centres unmarked) [Batch 03202012/1, iohexol]
Bulk density (g/cm3) ([6]; listed as 03202012/1): 0.90 g/cm3
Particle Size distribution (μm) D50 ([1]; listed as 03202012/1): 14 μm
Particle Size distribution (μm) D10 ([1]; listed as 03202012/1): 9 μm
Particle Size distribution (μm) D90 ([1]; listed as 03202012/1): 22 μm
Specific surface area m^2/g ([2]; listed as 03202012/1): 0.50 m^2/g
Dissolution time ([3]; Table 4, 1.8 g in 40 mL tap water at 10° C., manual shaking, listed as 03202012/1): 60 s
Dissolution time ([3]; Table 6, Example 5, listed as 03202012/1): 60 s
Interparticle space (% of bulk volume) ([7]; Table 6, listed as 03202012/1): 56 % of bulk volume
Skeletal density (g/cm3) [4]: 2.0 g/cm3

CC(=O)N(CC(O)CO)c1c(I)c(C(=O)NCC(O)CO)c(I)c(C(=O)NCC(O)CO)c1I (centres unmarked) [SDI, iohexol]
Specific Area measured [m^2/g] [2]: <1 m^2/g
Specific Area measured [m^2/g] ([2]; listed as spray dried iohexol): less than 1 m^2/g
Specific Area estimated [m^2/g] [2]: 0.5^b m^2/g
Relative desorbed amount Ad/Ad(crystallized) [2]: 0.08
Specific surface area m^2/g ([2]; listed as spray dried iohexol): about 0.5 m^2/g
Skeletal density [4]: 2.029 g/mL
Skeletal density ([4]; listed as spray dried iohexol): 2.029 g/mL

CC(=O)N(CC(O)CO)c1c(I)c(C(=O)NCC(O)CO)c(I)c(C(=O)NCC(O)CO)c1I (centres unmarked) [Batch 03202012/9, iohexol]
Bulk density (g/cm3) ([6]; listed as 03202012/9): 0.90 g/cm3
Particle Size distribution (μm) D50 ([1]; listed as 03202012/9): 20 μm
Particle Size distribution (μm) D10 ([1]; listed as 03202012/9): 11 μm
Particle Size distribution (μm) D90 ([1]; listed as 03202012/9): 35 μm
Specific surface area m^2/g ([2]; listed as 03202012/9): 0.50 m^2/g
Dissolution time ([3]; Table 4, 1.8 g in 40 mL tap water at 10° C., manual shaking, listed as 03202012/9): 60 s
Dissolution time ([3]; Table 6, Example 5, listed as 03202012/9): 60 s
Interparticle space (% of bulk volume) ([7]; Table 6, listed as 03202012/9): 56 % of bulk volume
Skeletal density (g/cm3) [4]: 2.0 g/cm3
